Test results published in patent US20250346573A1, “AZAQUINOLINONE DERIVATIVE, PREPARATION METHOD THEREFOR AND USE THEREOF” (CHENGDU EASTON BIOPHARMACEUTICALS CO., LTD., priority 2022, published 2025).

Tests used:
[1] = Study on pharmacokinetics of rats (oral gavage, plasma LC-MS/MS); assay type: in vivo; conditions: female SD rats, po. 3 mg/kg
Method: With SD rats as test animals, the plasma concentration in the plasma of rats at different time points after oral administration of the compounds of the present application was determined by an LC-MS/MS method. Pharmacokinetic parameters of the compounds of the present application in rats were obtained to study pharmacokinetic characteristics.
SD rats, female, body weight 180-220 g, 3 rats per group. After being purchased, the animals were fed in an animal house for an adaptation period of at least 3 days and then used for testing after passing quarantine.
3.1. Grouping: The SD rats were randomly grouped according to Table 4, which had no statistical difference in the body weight between groups after grouping.
3.2. Vehicle: 10% DMSO and 90% (20% SBE-β-CD in saline).
According to Table 4, each compound was prepared into a clear solution with the vehicle, respectively, and each group was administered by gavage with the corresponding test drug. Before administration, and at 15 min, 30 min, 1 h, 2 h, 4 h, 6 h, 8 h and 24 h after the administration, a fixed volume of blood was collected through sinuses jugularis, placed in an EDTA-K2 anticoagulant tube, and centrifuged at 4,000 rpm for 10 min to separate the plasma in a centrifuge tube. The plasma was frozen in a refrigerator at −80° C.
The plasma stored at −80° C. at each time point was taken out, and a fixed volume of acetonitrile was added thereto. After being vortexed at 1,500 rpm for 2 min, it was centrifuged for 15 min (3,500 r/min). A fixed volume of solution supernatant was taken for LC-MS/MS analysis.
The pharmacokinetic behaviors of the test compounds were fitted with a non-compartmental model, and the main pharmacokinetic parameters were calculated using DAS3.31 software.

[2] = tested on: BRCA1-mutated HCC1395 cells; assay: Proliferation inhibitory test of BRCA1-mutated HCC1395 cells (CCK-8); assay type: cell-based; conditions: Homo sapiens, 120 h, 5 days, read-out: IC50 (nM), inhibitory activity against BRCA1-mutated HCC1395 cells
Method: (§1) CCK-8 was used to measure the content of mitochondrial dehydrogenase in cells at different drug concentrations, and the luminescence intensity was used to reflect the cell activity. The IC50 values of different compounds on BRCA1-mutated HCC1395 cells were calculated using the survival rate, and the proliferation inhibitory effect of the compounds of the present disclosure on BRCA1-mutated HCC1395 cells was studied to evaluate the anti-tumor efficacy of the test compounds at the cellular level.
(§2) On Day −1, the cells were inoculated into the 96-well cell culture plate at a fixed cell density and then placed in the 5% CO2 cell incubator for culture overnight at 37° C.
(§3) On Day 0, the compound to be tested was prepared into a 10 mM stock solution and diluted into 9 concentration points at the concentration of 1,000 nM, 300 nM, 100 nM, 30 nM, 10 nM, 3 nM, 1 nM, 0.3 nM and 0.1 nM in two duplicated wells. A fixed volume of the diluted compound was added to the 96-well cell culture plate and then placed in the 5% CO2 cell incubator for culture at 37° C. for 5 days.
(§4) On Day 5, a fixed volume of CCK-8 was added to the 96-well cell culture plate and incubated in the 5% CO2 cell incubator at 37° C. for 1.5 h, and the plate was read by a chemiluminescence module of the multifunctional microplate reader.
(§5) With the logarithmic value of the concentration as an X axis and the survival percentage as a Y axis, a dose-effect curve was fitted by using a log(inhibitor) vs. response-Variable slop (Four parameters) formula of the analysis software Graphpad Prism 9, thereby obtaining the IC50 value of the anti-proliferation inhibitory activity of each compound against BRCA1-mutated HCC1395 cells.

[3] = tested on: BRCA1-mutated MDA-MB-436 cells; assay: Proliferation inhibitory test of BRCA1-mutated MDA-MB-436 cells (CCK-8); assay type: cell-based; conditions: Homo sapiens, 120 h, 5 days, read-out: IC50 (nM), inhibitory activity against BRCA1-mutated MDA-MB-436 cells
Method: as §1, with “MDA-MB-436” for “HCC1395”
as §2, §3, §4
as §5, with “MDA-MB-436” for “HCC1395”

Cl_F_obs [1]: 2.33 mL/min/kg | AUC(0-t) ([1]; rat): 21300 ng·h/mL | Cmax ([1]; rat): 2210 ng/mL | half-life ([1]; rat): 6.26 h | IC50 [2]: 2.56 nM | IC50 [3]: 2.2 nM
Structure (SMILES): Cc1nc(C(=O)NC2CC2)ccc1N1CCN(Cc2cc(F)c3nc(C)c(=O)[nH]c3c2)CC1 [Compound 55, N-cyclopropyl-5-(4-((8-fluoro-2-methyl-3-oxo-3,4-dihydroquinoxalin-6-yl)methyl)piperazin-1-yl)-6-methylpicolinamide]
